Reference: the supplement of paper PMC11451515

Assays:
Settings in all cases: 48 h
SEM cells [1] = assay: cell viability relative to DMSO control; higher = less cytotoxic
Procedure, shortened: (§1)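 Library compounds in DMSO were pin-dosed in an 11-point threefold series (47 μM to 0.79 nM) onto leukemia cells in 1536-well plates (5 μl). Plates held 500 cells/well of NOMO1 or SEM or 1000 cells/well of P12-Ichikawa, each adapted for at least four passages in each medium. Luminescence was read with CellTiter-Glo One after 48 h at 37°C. Viability means the per-plate percentage relative to DMSO wells, using cell-free wells as background.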

SEM cells [2] = assay: AUC of viability dose-response curve (% viability x log10 dose units); higher = less sensitive
Procedure, shortened: (§2)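 Medium-adapted leukemia cells in 1536-well plates, at 500 or 1000 cells/well, were incubated for 48 h at 37°C with library compounds in DMSO at 11 threefold doses from 47 μM to 0.79 nM. CellTiter-Glo One luminescence normalised per plate to DMSO and cell-free wells was fitted with a four-parameter log-logistic model over log10 doses. Area under the curve was integrated from this fit by trapezoidal rule, with curves beyond full viability scaled and failed quality-control curves removed.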

NOMO1 [3] = assay: as above
Procedure, shortened: as §2

P12-Ichikawa [4] = assay: as above
Procedure, shortened: as §2

NOMO1 [5] = assay: cell viability relative to DMSO control; higher = less cytotoxic
Procedure, shortened: as §1

P12-Ichikawa [6] = assay: as above
Procedure, shortened: as §1

CCCCC(C)(C)[C@H](O)/C=C/[C@H]1[C@H](O)CC(=O)[C@@H]1C/C=C\CCCC(=O)O
SEM cells [1], RPMI 5 mM glucose + 10% FBS
Settings | cell viability [%]
0.000781 µM | 101
0.00234 µM | 123
0.00702 µM | 131
0.0211 µM | 120
0.0632 µM | 119
0.19 µM | 137
0.569 µM | 117
1.71 µM | 130
5.12 µM | 51.5
15.4 µM | 78.2
46.1 µM | 13.4

AUC of viability dose-response curve
Settings | NOMO1 [3] | P12-Ichikawa [4] | SEM cells [2]
HPLM + 10% dialyzed FBS | 437 | 447 | 401
RPMI 5 mM glucose + 10% FBS | 453 | 437 | 407
RPMI 5 mM glucose + 10% dialyzed FBS | 431 | 442 | 403

CN(C)CC(C)(C)CNc1nn2c(-c3ccccc3)nnc2cc1C1CCC1
cell viability [%]
Settings | NOMO1 [5] | P12-Ichikawa [6] | SEM cells [1]
HPLM + 10% dialyzed FBS, 0.000781 µM | 113 | 106 | 79.6
HPLM + 10% dialyzed FBS, 0.00234 µM | 110 | 103 | 98.8
HPLM + 10% dialyzed FBS, 0.00702 µM | 117 | 110 | 100
HPLM + 10% dialyzed FBS, 0.0211 µM | 126 | 111 | 98
HPLM + 10% dialyzed FBS, 0.0632 µM | 113 | 112 | 92.1
HPLM + 10% dialyzed FBS, 0.19 µM | 109 | 110 | 114
HPLM + 10% dialyzed FBS, 0.569 µM | 116 | 94.9 | 5.79
HPLM + 10% dialyzed FBS, 1.71 µM | 110 | 111 | 101
HPLM + 10% dialyzed FBS, 5.12 µM | 91.9 | 84.2 | 92.3
HPLM + 10% dialyzed FBS, 15.4 µM | 39.5 | 33.9 | 82.7
HPLM + 10% dialyzed FBS, 46.1 µM | 22.4 | 6.88 | 62.4
RPMI 5 mM glucose + 10% FBS, 0.000781 µM | 107 | 108 | 92.9
RPMI 5 mM glucose + 10% FBS, 0.00234 µM | 98.4 | 111 | 116
RPMI 5 mM glucose + 10% FBS, 0.00702 µM | 103 | 104 | 104
RPMI 5 mM glucose + 10% FBS, 0.0211 µM | 123 | 102 | 127
RPMI 5 mM glucose + 10% FBS, 0.0632 µM | 103 | 109 | 110
RPMI 5 mM glucose + 10% FBS, 0.19 µM | 110 | 106 | 125
RPMI 5 mM glucose + 10% FBS, 0.569 µM | 111 | 87.8 | 6.41
RPMI 5 mM glucose + 10% FBS, 1.71 µM | 122 | 105 | 106
RPMI 5 mM glucose + 10% FBS, 5.12 µM | 116 | 70.3 | 103
RPMI 5 mM glucose + 10% FBS, 15.4 µM | 87 | 46.7 | 81.1
RPMI 5 mM glucose + 10% FBS, 46.1 µM | 15.6 | 6.32 | 73.1
RPMI 5 mM glucose + 10% dialyzed FBS, 0.000781 µM | 91.6 | 105 | 68.1
RPMI 5 mM glucose + 10% dialyzed FBS, 0.00234 µM | 110 | 111 | 123
RPMI 5 mM glucose + 10% dialyzed FBS, 0.00702 µM | 103 | 107 | 101
RPMI 5 mM glucose + 10% dialyzed FBS, 0.0211 µM | 105 | 111 | 113
RPMI 5 mM glucose + 10% dialyzed FBS, 0.0632 µM | 102 | 113 | 105
RPMI 5 mM glucose + 10% dialyzed FBS, 0.19 µM | 95.5 | 115 | 110
RPMI 5 mM glucose + 10% dialyzed FBS, 0.569 µM | 116 | 98.3 | 5.36
RPMI 5 mM glucose + 10% dialyzed FBS, 1.71 µM | 109 | 113 | 102
RPMI 5 mM glucose + 10% dialyzed FBS, 5.12 µM | 100 | 88.1 | 106
RPMI 5 mM glucose + 10% dialyzed FBS, 15.4 µM | 103 | 76.9 | 71.8
RPMI 5 mM glucose + 10% dialyzed FBS, 46.1 µM | 27.7 | 13.6 | 77.8

AUC of viability dose-response curve
Settings | HPLM + 10% dialyzed FBS | RPMI 5 mM glucose + 10% FBS | RPMI 5 mM glucose + 10% dialyzed FBS
NOMO1 [3] | 416 | 447 | 459
P12-Ichikawa [4] | 411 | 405 | 433

Cc1cc(Nc2cc(N3CCN(C)CC3)nc(Sc3ccc(NC(=O)C4CC4)cc3)n2)[nH]n1
AUC of viability dose-response curve
Settings | NOMO1 [3] | P12-Ichikawa [4] | SEM cells [2]
HPLM + 10% dialyzed FBS | 389 | 298 | 304
RPMI 5 mM glucose + 10% FBS | 390 | 302 | 286
RPMI 5 mM glucose + 10% dialyzed FBS | 376 | 315 | 286

COC1=CC=C2[C@H]3CC[C@]4(C)[C@H](CC[C@H]4[C@@H]3CCC2=C1)NCCCCCCN5C(=O)\C=C/C5=O
AUC of viability dose-response curve
Settings | NOMO1 [3] | P12-Ichikawa [4] | SEM cells [2]
HPLM + 10% dialyzed FBS | 434 | 456 | 472
RPMI 5 mM glucose + 10% FBS | 444 | 448 | 459
RPMI 5 mM glucose + 10% dialyzed FBS | 462 | 444 | 408

CCCN1CCO[C@@H]2c3cc(O)ccc3OC[C@H]21
cell viability [%], HPLM + 10% dialyzed FBS
Settings | P12-Ichikawa [6] | SEM cells [1]
0.000781 µM | 125 | 120
0.00234 µM | 123 | 123
0.00702 µM | 128 | 135
0.0211 µM | 120 | 112
0.0632 µM | 120 | 122
0.19 µM | 118 | 118
0.569 µM | 113 | 105
1.71 µM | 114 | 103
5.12 µM | 114 | 68.4
15.4 µM | 101 | 99.7
46.1 µM | 12.1 | 48.1

AUC of viability dose-response curve
Settings | NOMO1 [3] | P12-Ichikawa [4] | SEM cells [2]
HPLM + 10% dialyzed FBS | 451 | 448 | 406
RPMI 5 mM glucose + 10% FBS | 456 | 446 | 424
RPMI 5 mM glucose + 10% dialyzed FBS | 456 | 441 | 433

C[N]1N=C(C)C2=C1OC(=C(/C#N)C2C3=CC=C(C=C3)C(F)(F)F)/N (stereo not drawn)
AUC of viability dose-response curve
Settings | HPLM + 10% dialyzed FBS | RPMI 5 mM glucose + 10% FBS | RPMI 5 mM glucose + 10% dialyzed FBS
P12-Ichikawa [4] | 457 | 467 | 454
SEM cells [2] | 467 | 438 | 439

ClC/1=C(NCCN2CCOCC2)/C(=O)C3=C(C=CC=N3)C1=O
SEM cells [1], HPLM + 10% dialyzed FBS
Settings | cell viability [%]
0.000781 µM | 104
0.00234 µM | 105
0.00702 µM | 121
0.0211 µM | 118
0.0632 µM | 131
0.19 µM | 127
0.569 µM | 127
1.71 µM | 115
5.12 µM | 95.4
15.4 µM | 35.8
46.1 µM | 4.66

AUC of viability dose-response curve
Settings | NOMO1 [3] | P12-Ichikawa [4] | SEM cells [2]
HPLM + 10% dialyzed FBS | 416 | 450 | 410
RPMI 5 mM glucose + 10% FBS | 410 | 445 | 381
RPMI 5 mM glucose + 10% dialyzed FBS | 406 | 438 | 392

CC(C)CN(C[C@@H](O)[C@H](Cc1ccccc1)NC(=O)O[C@H]1CCOC1)[S+](=O)([O-])c1ccc(N)cc1
AUC of viability dose-response curve
Settings | NOMO1 [3] | P12-Ichikawa [4] | SEM cells [2]
HPLM + 10% dialyzed FBS | 440 | 396 | 410
RPMI 5 mM glucose + 10% FBS | 453 | 382 | 369
RPMI 5 mM glucose + 10% dialyzed FBS | 443 | 362 | 365

O=C(Nc1cc(C(F)(F)F)cc(C(F)(F)F)c1)c1cc(Cl)ccc1O
AUC of viability dose-response curve
Settings | NOMO1 [3] | P12-Ichikawa [4] | SEM cells [2]
HPLM + 10% dialyzed FBS | 361 | 368 | 373
RPMI 5 mM glucose + 10% FBS | 368 | 361 | 357
RPMI 5 mM glucose + 10% dialyzed FBS | 363 | 361 | 370
